According to patent US8669247B2, “2,5-disubstituted arylsulfonamide CCR3 antagonists” (Axikin Pharmaceuticals, Inc., priority 2009, dated 2014):
Where a name gives a salt, the structure may show the parent alone.

Tests used:
CCR3 receptor = molecular target: T1, CCR3 receptor (UniProt P51677); assay: CCR3 Receptor Binding Assay ([125I]-labeled human eotaxin/CCL11 displacement on cells)
T1 sequence (P51677 1-355): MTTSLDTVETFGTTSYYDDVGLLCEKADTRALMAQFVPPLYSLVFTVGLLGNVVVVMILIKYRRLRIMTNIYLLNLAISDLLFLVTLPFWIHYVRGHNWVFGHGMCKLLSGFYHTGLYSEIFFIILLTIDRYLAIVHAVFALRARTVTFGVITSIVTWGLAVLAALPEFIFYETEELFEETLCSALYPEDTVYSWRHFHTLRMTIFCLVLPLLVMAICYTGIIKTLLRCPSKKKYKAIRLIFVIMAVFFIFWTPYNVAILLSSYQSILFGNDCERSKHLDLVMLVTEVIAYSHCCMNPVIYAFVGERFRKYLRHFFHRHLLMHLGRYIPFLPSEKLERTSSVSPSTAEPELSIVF
Procedure: Cells were washed once with PBS and resuspended in a binding buffer (25 mM HEPES pH 7.6, 5 mM MgCl2, 1 mM CaCl2, 0.5% BSA, 0.1% NaN3), […] of cell suspension (2×10^5 cells/well) and 0.1 nM [^125I]-labeled human eotaxin/CCL11 (2000 Ci/mmol specific activity) were mixed in a 96-well U-bottom polypropylene plate, and incubated for 60 min at room temperature for the binding reaction. The cell suspension was then transferred to a filtration plate (#MAFB, Millipore), and washed 3 times with the binding buffer containing 0.5 M NaCl, scintillant added, and the radioactivity was counted on a TopCount (Packard). For the determination of non-specific binding, the cell suspension and [^125I]-labeled human eotaxin/CCL11 were incubated in the presence of 500 nM of unlabeled human eotaxin/CCL11. See, lino et al., “Molecular cloning and functional characterization of cynomolgus monkey (Macaca fascicularis) CC chemokine receptor, CCR3,” Cytokine 2002, 19, 276-286.

[1] = Free (free form of the compound)
[2] = HCl: hydrochloric acid salt of the corresponding compound

Compound: O=[N+]([O-])c1ccc(Sc2cc(Cl)ccc2Cl)c(S(=O)(=O)N2CCNCC2)c1 [Compound 123, 1-(2-(2,5-Dichlorophenylthio)-5-nitrophenylsulfonyl)piperazine]
- melting point: 150 to 153 °C
- Ki (CCR3 receptor; [1]): 10 to 25 nM

Compound: Cc1ccc(C)c(Oc2ccc([N+](=O)[O-])cc2S(=O)(=O)N2CCOCC2)c1 [Compound 113, 4-(2-(2,5-Dimethylphenoxy)-5-nitrophenylsulfonyl)morpholine]
- melting point: 124 to 127 °C
- Ki (CCR3 receptor; [1]): > 5 nM

Compound: CC1CN(S(=O)(=O)c2cc(C#N)ccc2Sc2cc(Cl)ccc2Cl)CC(C)N1 (centres unmarked) (as salt: hydrochloride) [Compound 79, 4-(2,5-Dichlorophenylthio)-3-(3,5-dimethylpiperazin-1-ylsulfonyl)benzonitrile]
- melting point: 176 to 180 °C

Compound: CC(C)N1CCN(S(=O)(=O)c2cc(C#N)ccc2Oc2cc(F)ccc2F)CC1 (as salt: hydrochloride) [Compound 54, 4-(2,5-Difluorophenoxy)-3-(4-isopropylpiperazin-1-ylsulfonyl)benzonitrile]
- melting point: 179 to 182 °C

Compound: CC1CN(S(=O)(=O)c2cc(C#N)ccc2Oc2cc(F)ccc2F)CC(C)N1 (centres unmarked) (as salt: hydrochloride) [Compound 53, 4-(2,5-Difluorophenoxy)-3-(3,5-dimethylpiperazin-1-ylsulfonyl)benzonitrile]
- melting point: 157 to 159 °C

Compound: O=[N+]([O-])c1ccc(Sc2cc(Cl)ccc2Cl)c(S(=O)(=O)N2CCCNCC2)c1 [Compound 127, 1-(2-(2,5-Dichlorophenylthio)-5-nitrophenylsulfonyl)-1,4-diazepane]
- Ki (CCR3 receptor; [1]): > 5 nM

Compound: N#Cc1ccc(Oc2cc(Cl)ccc2Cl)c(S(=O)(=O)N2CCN(C3CCCCCC3)CC2)c1 [Compound 91, 3-(4-Cycloheptylpiperazin-1-ylsulfonyl)-4-(2,5-dichlorophenoxy)benzonitrile]
- Ki (CCR3 receptor; [1]): 10 to 25 nM

Compound: Cc1ccc(C)c(Sc2ccc([N+](=O)[O-])cc2S(=O)(=O)N2CC(C)NC(C)C2)c1 (centres unmarked) [Compound 105, 1-(2-(2,5-Dimethylphenylthio)-5-nitrophenylsulfonyl)-3,5-dimethylpiperazine]
- Ki (CCR3 receptor; [1]): > 5 nM

Compound: Cc1ccc(C)c(Sc2ccc(C#N)cc2S(=O)(=O)N2CCSCC2)c1 [Compound 85, 4-(2,5-Dimethylphenylthio)-3-(thiomorpholinosulfonyl)benzonitrile]
- Ki (CCR3 receptor; [1]): > 5 nM

Compound: CCN1CCN(S(=O)(=O)c2cc([N+](=O)[O-])ccc2Sc2cc(C)ccc2C)CC1 [Compound 101, 1-(2-(2,5-Dimethylphenylthio)-5-nitrophenylsulfonyl)-4-ethylpiperazine]
- Ki (CCR3 receptor; [1]): > 5 nM

Compound: O=[N+]([O-])c1ccc(Sc2cc(Cl)ccc2Cl)c(S(=O)(=O)N2CCN(C3CCCCC3)CC2)c1 [Compound 118, 1-Cyclohexyl-4-(2-(2,5-dichlorophenylthio)-5-nitrophenylsulfonyl)piperazine]
- Ki (CCR3 receptor; [1]): 10 to 25 nM

Compound: Cc1ccc(C)c(Sc2ccc(C#N)cc2S(=O)(=O)N2CCC(N3CCCC3)CC2)c1 [Compound 74, 4-(2,5-Dimethylphenylthio)-3-(4-(pyrrolidin-1-yl)piperidin-1-ylsulfonyl)-benzonitrile]
- Ki (CCR3 receptor; [1]): 10 to 25 nM
- Ki (CCR3 receptor; [2]): ≤ 10 nM

Compound: Cc1ccc(C)c(Sc2ccc(C#N)cc2S(=O)(=O)N2CCS(=O)(=O)CC2)c1 [Compound 140]
- Ki (CCR3 receptor; [1]): > 5 nM

Compound: Cc1ccc(C)c(Oc2ccc(C#N)cc2S(=O)(=O)N2CCNCC2)c1 [Compound 51, 4-(2,5-Dimethylphenoxy)-3-(piperazin-1-ylsulfonyl)benzonitrile]
- Ki (CCR3 receptor; [1]): 100 to 500 nM
- Ki (CCR3 receptor; [2]): 25 to 100 nM

Compound: CCN(CC)CCNS(=O)(=O)c1cc(C#N)ccc1Oc1cc(F)ccc1F [Compound 62, 5-Cyano-N-(2-(diethylamino)ethyl)-2-(2,5-difluorophenoxy)benzenesulfonamide]
- Ki (CCR3 receptor; [2]): > 5 nM

Compound: O=[N+]([O-])c1ccc(Oc2cc(Cl)ccc2Cl)c(S(=O)(=O)N2CCN(C3CCCCC3)CC2)c1 [Compound 119, 1-Cyclohexyl-4-(2-(2,5-dichlorophenoxy)-5-nitrophenylsulfonyl)piperazine]
- Ki (CCR3 receptor; [1]): ≤ 10 nM

Compound: CC(C)(O)C1CCN(S(=O)(=O)c2cc(C#N)ccc2Oc2cc(Cl)ccc2Cl)CC1 [Compound 97, 4-(2,5-Dichlorophenoxy)-3-(4-(2-hydroxypropan-2-yl)piperidin-1-ylsulfonyl)benzonitrile]
- Ki (CCR3 receptor; [1]): 100 to 500 nM

Compound: N#Cc1ccc(Oc2cc(F)ccc2F)c(S(=O)(=O)N2CCN(C3CCCC3)CC2)c1 [Compound 56, 3-(4-Cyclopentylpiperazin-1-ylsulfonyl)-4-(2,5-difluorophenoxy)benzonitrile]
- Ki (CCR3 receptor; [1]): 25 to 100 nM
- Ki (CCR3 receptor; [2]): 25 to 100 nM

Compound: N#Cc1ccc(Oc2cc(F)ccc2F)c(S(=O)(=O)N2CCC(N3CCCC3)CC2)c1 [Compound 60, 4-(2,5-Difluorophenoxy)-3-(4-(pyrrolidin-1-yl)piperidin-1-ylsulfonyl)benzonitrile]
- Ki (CCR3 receptor; [1]): > 5 nM
- Ki (CCR3 receptor; [2]): > 5 nM

Compound: CC(C)N1CCN(S(=O)(=O)c2cc([N+](=O)[O-])ccc2Sc2cc(Cl)ccc2Cl)CC1 [Compound 108, 1-(2-(2,5-Dichlorophenylthio)-5-nitrophenylsulfonyl)-4-isopropylpiperazine]
- Ki (CCR3 receptor; [1]): ≤ 10 nM

Compound: CCN1CCN(S(=O)(=O)c2cc([N+](=O)[O-])ccc2Sc2cc(Cl)ccc2Cl)CC1 [Compound 99]
- Ki (CCR3 receptor; [1]): 10 to 25 nM

Compound: O=C1CN(S(=O)(=O)c2cc([N+](=O)[O-])ccc2Sc2cc(Cl)ccc2Cl)CCN1 [Compound 124, 4-(2-(2,5-Dichlorophenylthio)-5-nitrophenylsulfonyl)piperazin-2-one]
- Ki (CCR3 receptor; [1]): ≤ 10 nM

Compound: CN1CCCN(S(=O)(=O)c2cc(C#N)ccc2Sc2cc(Cl)ccc2Cl)CC1 [Compound 81, 4-(2,5-Dichlorophenylthio)-3-(4-methyl-1,4-diazepan-1-ylsulfonyl)-benzonitrile]
- Ki (CCR3 receptor; [1]): ≤ 10 nM
- Ki (CCR3 receptor; [2]): 10 to 25 nM

Compound: N#Cc1ccc(Sc2cc(Cl)ccc2Cl)c(S(=O)(=O)N2CCC(N3CCCC3)CC2)c1 [Compound 84, 4-(2,5-Dichlorophenylthio)-3-(4-(pyrrolidin-1-yl)piperidin-1-ylsulfonyl)benzonitrile]
- Ki (CCR3 receptor; [1]): ≤ 10 nM
- Ki (CCR3 receptor; [2]): ≤ 10 nM

Compound: N#Cc1ccc(Oc2cc(F)ccc2F)c(S(=O)(=O)N2CCNCC2)c1 (as salt: hydrochloride) [Compound 52, 4-(2,5-Difluorophenoxy)-3-(piperazin-1-ylsulfonyl)benzonitrile]
- melting point: 125 to 143 °C

Compound: O=[N+]([O-])c1ccc(Oc2cc(Cl)ccc2Cl)c(S(=O)(=O)N2CCC(N3CCCC3)CC2)c1 [Compound 61]
- Ki (CCR3 receptor; [1]): 10 to 25 nM

Compound: CCN1CCN(S(=O)(=O)c2cc([N+](=O)[O-])ccc2Oc2cc(C)ccc2C)CC1 [Compound 102, 1-(2-(2,5-Dimethylphenoxy)-5-nitrophenylsulfonyl)-4-ethylpiperazine]
- Ki (CCR3 receptor; [1]): > 5 nM

Compound: Cc1ccc(C)c(Sc2ccc([N+](=O)[O-])cc2S(=O)(=O)N2CCNC(=O)C2)c1 [Compound 125, 4-(2-(2,5-Dimethylphenylthio)-5-nitrophenylsulfonyl)piperazin-2-one]
- Ki (CCR3 receptor; [1]): > 5 nM

Compound: CN1CCN(S(=O)(=O)c2cc(C#N)ccc2Oc2cc(Cl)ccc2Cl)CC1 [Compound 96, 4-(2,5-Dichlorophenoxy)-3-(4-methylpiperazin-1-ylsulfonyl)benzonitrile]
- Ki (CCR3 receptor; [1]): 25 to 100 nM

Compound: Cc1ccc(C)c(Sc2ccc(C#N)cc2S(=O)(=O)N2CCN(C3CCCC3)CC2)c1 [Compound 69, 3-(4-Cyclopentylpiperazin-1-ylsulfonyl)-4-(2,5-dimethylphenylthio)-benzonitrile]
- Ki (CCR3 receptor; [1]): 25 to 100 nM
- Ki (CCR3 receptor; [2]): 100 to 500 nM

Compound: Cc1ccc(C)c(Oc2ccc([N+](=O)[O-])cc2S(=O)(=O)N2CCNCC2)c1 [Compound 148, 1-(2-(2,5-Dimethylphenoxy)-5-nitrophenylsulfonyl)piperazine]
- Ki (CCR3 receptor; [2]): > 5 nM

Compound: CC(C)N1CCN(S(=O)(=O)c2cc(C#N)ccc2Oc2cc(Cl)ccc2Cl)CC1 [Compound 88, 4-(2,5-Dichlorophenoxy)-3-(4-isopropylpiperazin-1-ylsulfonyl)benzonitrile]
- Ki (CCR3 receptor; [1]): ≤ 10 nM

Compound: Cc1ccc(C)c(Sc2ccc(C#N)cc2S(=O)(=O)N2CC(C)NC(C)C2)c1 (centres unmarked) [Compound 66, 4-(2,5-Dimethylphenylthio)-3-(3,5-dimethylpiperazin-1-ylsulfonyl)-benzonitrile]
- Ki (CCR3 receptor; [1]): ≤ 10 nM

Compound: Cc1ccc(C)c(Sc2ccc([N+](=O)[O-])cc2S(=O)(=O)N2CCN(C3CCCCC3)CC2)c1 [Compound 120, 1-Cyclohexyl-4-(2-(2,5-dimethylphenylthio)-5-nitrophenylsulfonyl)piperazine]
- Ki (CCR3 receptor; [1]): > 5 nM

Compound: CN(C)C1CCN(S(=O)(=O)c2cc(C#N)ccc2Oc2cc(F)ccc2F)CC1 [Compound 59, 4-(2,5-Difluorophenoxy)-3-(4-(dimethylamino)piperidin-1-ylsulfonyl)benzonitrile]
- Ki (CCR3 receptor; [1]): > 5 nM
- Ki (CCR3 receptor; [2]): > 5 nM

Compound: Cc1ccc(C)c(Sc2ccc(C#N)cc2S(=O)(=O)N2CCN(C(C)C)CC2)c1 [Compound 67, 4-(2,5-Dimethylphenylthio)-3-(4-isopropylpiperazin-1-ylsulfonyl)benzonitrile]
- Ki (CCR3 receptor; [1]): 25 to 100 nM
- Ki (CCR3 receptor; [2]): 100 to 500 nM
